The record followed here is US6495537B1, “Method for inhibition of photocarcinogenesis or photoimmunosuppression using niacin” (University of Kentucky Research Foundation, priority 1998, dated 2002).

One data set has as its system UV-induced skin tumors. The following applies: for number of tumors per mouse: 26.5 weeks after first UV treatment, basal diet 0.72; for skin tumor incidence: UV-irradiated mice, 26.5 weeks after first UV exposure, unsupplemented 68%. The method, then: Six-week-old specific-pathogen-free female BALB/cAnNTacfBR (H-2^d) mice were purchased from Taconic Laboratory Animals (Germantown, N.Y.) and quarantined from two weeks before treatment. Animals were housed in microisolators under barrier conditions with a 12:12-hour light-dark cycle at 20+/−2° C. (SD).
(§1) Groups of 25 mice each received the basal diet which consisted of the American Institute of Nutrition 76A rodent diet containing 10% corn oil and 30 mg niacin per kilogram diet, supplemented with 0, 0.1, 0.5, or 1.0% niacin (Dyets Inc. Bethlehem, Pa.). All diets were pelleted (Dyets Inc.) without heat or steam and stored under refrigeration for less than 10 weeks. Animals were fed ad libitum and given fresh diet three times per week for three weeks before UV treatments began, and throughout the study. Niacin intakes were calculated from the diet consumed. Animals were supplied with sterilized water ad libitum.
(§2) The mice were exposed to UV radiation after three weeks of oral niacin administration. The animals were shaved dorsally with animal clippers each week. The filter tops, food, and water bottles were removed from the microisolators while mice were exposed to UV radiation emitted by banks of six FS40 Westinghouse fluorescent sun lamps for 30 min per day, five days per week. This UV regimen continued for 22 weeks in the carcinogenesis experiments, and for 11 weeks in the passive transfer assay experiments. The cages were systemically rotated during the study to compensate for any differences in flux at different positions under the lamps. The FS40 lamps emit a continuous spectrum from 270 to 390 nm with peak emission at 313 nm. About 75% of the energy output is in the wavelength range of 280-340 nm with about 23% in the 340-390 nm range. The total UVB radiation dose was approximately 1.41×10^6 Jm^−2 in the carcinogenesis experiments, and about […] in the passive transfer experiments, as measured with a UVX Digital Radiometer with a UVX-31 sensor (Ultraviolet Products, San Gabriel, Calif.).
(§3) Differences in primary tumor incidence between the experimental groups were analyzed by the Wilcoxon rank sum test. […] For the NAD assay, the Q test was first applied to the data to determine whether questionable values should be rejected. This test was conducted at the 95% confidence level. The data were then analyzed using the MIXED procedure in the statistical analysis program SAS 6.11. […] In this manner, it was possible to first account for differences and variability in duplicate or triplicate samples from the same mouse before the differences between each mouse in each group was compared. This procedure resulting in more precise group means than if each single value carried equal weight. Least-squares means for each group were calculated, and a multiple comparison between these means was made after applying a Tukey-Kramer adjustment for the p-values.
Groups of 25 mice each were fed the AIN76A rodent diet containing 10% corn oil and 30 mg niacin per kilogram diet, supplemented with 0, 0.1, 0.5, or 1.0% niacin. After three weeks of this diet, dorsally shaved mice were exposed to UV radiation for 30 min per day, five days per week for 22 weeks.

For the next data set, the system named is skin NAD. As to the method:
as §3

The conditions of data set [1]: for Body Weight: mean; for Food Consumed: mean (SD). The method, then: as §1
Niacin ingestion was calculated from diet consumption recorded on 50% of the animals of each group.

The test system of the next data set is UVM12 tumor cells. The following applies: 32 days after tumor challenge, 0% niacin 91.6, unirradiated control 21.9. As to the method:
as §2, §3

Setting [2] is: diet supplemented with 0.1% niacin.

Where two headings read alike, the source gives them in different places.

Consider `O=C(O)c1cccnc1` [niacin], for which the “number of tumors per mouse” value amounted to 0.6% in the data set with UV-induced skin tumors (setting [2]), 0.48% with UV-induced skin tumors (diet supplemented with 0.5% niacin) and 0.4% in the data set on UV-induced skin tumors (diet supplemented with 1.0% niacin). Besides, the skin tumor incidence with UV-induced skin tumors (setting [2]) is on record as 60%; in the data set with UV-induced skin tumors (diet supplemented with 0.5% niacin, p=0.0257) it was 48%; with UV-induced skin tumors (diet supplemented with 1.0% niacin, p=0.0257), 28%. For the same molecule, the “skin NAD content vs UV-irradiated mice receiving no additional niacin” value in the data set with skin NAD (0.5% niacin supplementation, p<0.0001 dorsal skin, p=0.0114 ventral skin) is given as “significantly higher skin NAD content”; in the data set with skin NAD (1.0% niacin supplementation, p=0.0025 dorsal skin, p=0.0017 ventral skin), “significantly higher skin NAD content”. In addition, the “body weights of UV-irradiated mice, with or without supplemental niacin” value in data set [1] (0.1, 0.5 or 1.0% niacin diets vs basal diet) is reported as “similar”. Moreover, the “Body Weight” value in data set [1] (+UV +0.1% niacin diet) came out at 18.2 grams; in data set [1] (+UV +0.5% niacin diet) it was 18.07 grams; in data set [1] (+UV +1% niacin diet), 18.55 grams. Moreover, the figures for the “Food Consumed” value in data set [1] (+UV +0.1% niacin diet), in data set [1] (+UV +0.5% niacin diet) and in data set [1] (+UV +1% niacin diet) were 2.47 (0.54) g/mouse/day, 2.77 (0.66) g/mouse/day and 2.88 (0.60) g/mouse/day, respectively. Besides, the mean tumor size with UVM12 tumor cells (recipients of splenocytes from UVB-irradiated donors on 0.1% niacin) was 79.8(+/−11.5) sq mm; in the data set on UVM12 tumor cells (recipients of splenocytes from UVB-irradiated donors on 0.5% niacin), 41.9 (+/−11.7) sq mm; in the data set on UVM12 tumor cells (recipients of splenocytes from UVB-irradiated donors on 1.0% niacin), 13.2(+/−4.1) sq mm.
